The text below walks through data of article PMC9863716, “The Sequence Characteristics and Binding Properties of the Odorant-Binding Protein 2 of Euplatypus parallelus to Semiochemicals” (International Journal of Molecular Sciences, 2023).

For orientation: Ki means a dissociation constant, usually derived from enzyme kinetics or from competition with a known ligand. For orientation: IC50 means the concentration that gives 50% inhibition. A lower IC50 goes with greater potency.

The structures appear in SMILES notation.

In one assay the test system is rubber bark beetles. More on the design: method as in ref 16, 17 = [16]; 16. Shore T. McLean J. Attraction of Platypus wilsoni Swaine (Coleoptera: Platipodidae) to traps baited with sulcatol, ethanol and alpha-pinene Can. For. Serv. Res. Notes 1983 3 24 25 || [17]; 17. Chen Q. Liang X. Wu C. Chen Q. Zhang Z. Trapping effects of 12 aggregation pheromones on rubber bark beetles Chin. J. Trop. Crops 2019 40 2432 2439. The following applies: trapping experiments; cited from earlier work.

The target of assay [1] is EparOBP2. The experiment in a line: Fluorescence competitive binding assay (displacement of 1-NPN). More on the design: species or system Euplatypus parallelus. The following applies: 2 μM protein, 50 mM Tris-HCl pH 7.4; for Ki: Ki = IC50/(1 + [1-NPN]/K1-NPN); for IC50: ligand concentration displacing 50% of 1-NPN. How it is done: (§1) Nine semiochemicals related to the life activities of E. parallelus were used as candidate ligands. The binding capacities of EpraOBP2 were evaluated using an F-7000 fluorescence spectrometer (Hitachi, Tokyo, Japan). The fluorescent reporter N-phenyl-1-naphthylamine (1-NPN) was dissolved in chromatographic methanol at a concentration of 1 mM. The purified EparOBP2 was dissolved in 50 mM Tris-HCl (pH 7.4) at a final concentration of 2 μM. The fluorescence spectra were scanned between 360 and 650 nm. […] Prism 8 (GraphPad Software, San Diego, CA, USA) was used to calculate the dissociation constant of 1-NPN (K1-NPN).
To calculate the binding ability of EparOBP2 with semiochemicals, different odor compounds were used to replace the 1-NPN from the EparOBP2/1-NPN complex. The odor ligands were dissolved in chromatographic methanol at a concentration of 1 mM and added as aliquots to the protein solution. The spectral results were obtained, and the dissociation constants of the competitors were calculated with the formula Ki = IC50/(1 + [1-NPN]/K1-NPN), where 1-NPN represents the free concentration of 1-NPN, while IC50 represents the ligand concentration displacing 50% of the fluorescent reporter.

In a further assay the test system is E. parallelus. More on the design: method as in ref 7, 15 = [7]; 7. Zhou X. Guo J. Yin T. Gan W. Bai C. Xu F. Yang S. Research progress on rubber bark beetles and trapping control technology in China Chin. J. Trop. Crops 2021 42 3049 3054 || [15]; 15. Xu F. Research of Volatile Compounds of Rubber Tree and Its Behavioral Activities on Two Species of Bark Beetles Hainan University Haikou, China 2019 20 24. The note with it: cited from earlier work.

The target of assay [2] is EparOBP2. The experiment in a line: Titration of EparOBP2 with fluorescent probe 1-NPN (saturation and Scatchard plot). Type of assay: binding, Euplatypus parallelus. The following applies: 2 μM protein titrated with 2 to 20 μM 1-NPN, pH 7.4; read-out: K1-NPN (dissociation constant of 1-NPN). As to the method: as §1

In the case of `C=CC(=C)CCC=C(C)C` [Myrcene], the “attraction effects on rubber bark beetles” value with rubber bark beetles is “attraction effects”. For the same compound, at EparOBP2 [1], the Ki was determined as 7.49 µM and the IC50 was found to be 8.99 µM.
For the compound `C=C1C2CCC(C2)C1(C)C` (stereo not shown) [Camphene], the “attraction effects on rubber bark beetles” value with rubber bark beetles is given as “attraction effects”. At EparOBP2 [1], the Ki was determined as 27.4 µM and the IC50 worked out at 32.9 µM.
Regarding `C=CC(C)(C)O` [2-Methyl-3-buten-2-ol], the “attraction effects on rubber bark beetles” value in the assay on rubber bark beetles was “attraction effects”. For the same compound, at EparOBP2 [1], the Ki came out at 31.6 µM and the concentration for half-maximal inhibition (IC50) is 37.9 µM.
As to `CC1=C[C@H](O)[C@H]2C[C@@H]1C2(C)C` [S-(-)-cis-Verbenol], in the assay with rubber bark beetles, the “attraction effects on rubber bark beetles” value was “attraction effects”. At EparOBP2 [1], the Ki was 19.3 µM and the IC50 was found to be 23.2 µM.
In the case of `CC1=CCC2CC1C2(C)C` (stereo not drawn) [α-Pinene], the “attraction effects on rubber bark beetles” value with rubber bark beetles is “attraction effects”. At EparOBP2 [1], the Ki was 15.9 µM and the concentration for half-maximal inhibition (IC50) came out at 19.1 µM.
As for `CCCCCCCCCCCCCC` [Tetradecane], the “attraction effect on E. parallelus” value with E. parallelus is given as “attraction effect”. On EparOBP2 [1], the Ki turned out to be 26 µM and the IC50 is 31.2 µM.
On to `CC(C)(O)c1ccccc1` [2-Phenyl-2-propanol], for which the “attraction effect on E. parallelus” value in the assay with E. parallelus was “attraction effect”. For the same compound, at EparOBP2 [1], the Ki stood at 23.3 µM and the IC50 amounted to 27.9 µM.
Turning to `C=C(C)[C@@H]1CC=C(C)CC1` [(S)-(-)-Limonene], in the assay with rubber bark beetles, the “attraction effects on rubber bark beetles” value is given as “attraction effects”. Further, at EparOBP2 [1], the Ki came to 33.7 µM and the IC50 turned out to be 40.4 µM.
For the compound `C=C1[C@H]2CC[C@@H]3[C@H]2C(C)(C)CCC[C@]13C` [(+)-Longifolene], the “attraction effect on E. parallelus” value in the assay with E. parallelus is given as “attraction effect”. Also, at EparOBP2 [1], the Ki was found to be 41.3 µM and the IC50 was determined as 49.6 µM.
With `c1ccc(Nc2cccc3ccccc23)cc1` [1-NPN, N-phenyl-1-naphthylamine], the Kd on EparOBP2 [2] stood at 4.98 µM.
